The values below are quoted from earlier work in patent US7446116B2, “Montelukast amantadine salt” (Synthon BV, priority 2006, dated 2008).

Where a name gives a salt, the structure may show the parent alone.

The subject of data set [1] is human patient. The following applies: doses of at least 200 mg per day.
For data set [2], the system named is rats. The following applies: oral administration.

Regarding `NC12CC3CC(CC(C3)C1)C2` [amantadine hydrochloride], the “safety for a human patient” value in data set [1] is “safe and nontoxic”.

In the case of `CC(C)(C)N` [tert.butyl amine], in data set [2], the “toxicity, expressed as LD50 value” is reported as 44 mg/kg.
